Values quoted from earlier work as cited in patent US7960134B1, “Kinase inhibition models and their uses” (ArQule, Inc., priority 2007, dated 2011).

Columns and labels:
c-Abl = c-Abl (Homo sapiens, UniProt P00519); conditions: observation cited from WO 2006/086484 A1
c-Met = c-Met (Homo sapiens, UniProt P08581); conditions: observation cited from WO 2006/086484 A1
Sequence of c-Met (P08581 25-1390): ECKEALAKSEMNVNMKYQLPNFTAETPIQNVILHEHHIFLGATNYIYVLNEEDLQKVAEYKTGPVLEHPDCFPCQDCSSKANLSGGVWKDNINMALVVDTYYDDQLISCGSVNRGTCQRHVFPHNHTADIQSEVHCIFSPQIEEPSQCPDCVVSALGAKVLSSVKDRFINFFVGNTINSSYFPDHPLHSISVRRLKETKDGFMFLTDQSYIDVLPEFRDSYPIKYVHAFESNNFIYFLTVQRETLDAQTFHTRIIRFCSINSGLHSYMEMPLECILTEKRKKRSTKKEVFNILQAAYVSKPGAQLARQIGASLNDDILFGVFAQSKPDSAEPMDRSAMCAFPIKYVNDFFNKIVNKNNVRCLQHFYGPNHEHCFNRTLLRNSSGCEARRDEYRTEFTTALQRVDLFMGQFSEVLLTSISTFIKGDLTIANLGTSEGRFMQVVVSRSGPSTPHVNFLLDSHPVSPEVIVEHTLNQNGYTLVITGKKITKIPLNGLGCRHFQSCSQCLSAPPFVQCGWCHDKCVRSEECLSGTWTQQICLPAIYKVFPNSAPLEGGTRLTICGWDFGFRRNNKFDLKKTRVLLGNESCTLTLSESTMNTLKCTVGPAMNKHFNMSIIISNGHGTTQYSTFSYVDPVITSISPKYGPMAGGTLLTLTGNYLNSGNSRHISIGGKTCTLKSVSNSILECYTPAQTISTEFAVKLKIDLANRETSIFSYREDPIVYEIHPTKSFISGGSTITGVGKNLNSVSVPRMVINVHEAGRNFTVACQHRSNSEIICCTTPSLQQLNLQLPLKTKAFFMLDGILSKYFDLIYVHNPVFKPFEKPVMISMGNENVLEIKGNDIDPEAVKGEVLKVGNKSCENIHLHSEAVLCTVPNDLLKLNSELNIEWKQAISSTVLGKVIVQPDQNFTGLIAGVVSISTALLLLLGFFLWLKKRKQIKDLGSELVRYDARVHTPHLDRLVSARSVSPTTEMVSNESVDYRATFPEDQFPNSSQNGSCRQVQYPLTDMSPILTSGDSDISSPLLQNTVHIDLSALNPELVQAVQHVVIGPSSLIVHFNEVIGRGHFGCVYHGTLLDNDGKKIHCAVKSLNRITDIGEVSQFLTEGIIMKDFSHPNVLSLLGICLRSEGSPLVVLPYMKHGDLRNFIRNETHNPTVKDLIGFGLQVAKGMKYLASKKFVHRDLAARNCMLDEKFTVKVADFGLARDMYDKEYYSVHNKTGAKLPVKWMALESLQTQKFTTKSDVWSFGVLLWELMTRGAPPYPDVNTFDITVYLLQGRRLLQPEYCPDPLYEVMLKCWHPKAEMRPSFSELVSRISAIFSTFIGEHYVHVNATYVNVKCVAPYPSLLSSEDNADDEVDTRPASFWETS

Sequence of c-Abl (P00519 whole entry): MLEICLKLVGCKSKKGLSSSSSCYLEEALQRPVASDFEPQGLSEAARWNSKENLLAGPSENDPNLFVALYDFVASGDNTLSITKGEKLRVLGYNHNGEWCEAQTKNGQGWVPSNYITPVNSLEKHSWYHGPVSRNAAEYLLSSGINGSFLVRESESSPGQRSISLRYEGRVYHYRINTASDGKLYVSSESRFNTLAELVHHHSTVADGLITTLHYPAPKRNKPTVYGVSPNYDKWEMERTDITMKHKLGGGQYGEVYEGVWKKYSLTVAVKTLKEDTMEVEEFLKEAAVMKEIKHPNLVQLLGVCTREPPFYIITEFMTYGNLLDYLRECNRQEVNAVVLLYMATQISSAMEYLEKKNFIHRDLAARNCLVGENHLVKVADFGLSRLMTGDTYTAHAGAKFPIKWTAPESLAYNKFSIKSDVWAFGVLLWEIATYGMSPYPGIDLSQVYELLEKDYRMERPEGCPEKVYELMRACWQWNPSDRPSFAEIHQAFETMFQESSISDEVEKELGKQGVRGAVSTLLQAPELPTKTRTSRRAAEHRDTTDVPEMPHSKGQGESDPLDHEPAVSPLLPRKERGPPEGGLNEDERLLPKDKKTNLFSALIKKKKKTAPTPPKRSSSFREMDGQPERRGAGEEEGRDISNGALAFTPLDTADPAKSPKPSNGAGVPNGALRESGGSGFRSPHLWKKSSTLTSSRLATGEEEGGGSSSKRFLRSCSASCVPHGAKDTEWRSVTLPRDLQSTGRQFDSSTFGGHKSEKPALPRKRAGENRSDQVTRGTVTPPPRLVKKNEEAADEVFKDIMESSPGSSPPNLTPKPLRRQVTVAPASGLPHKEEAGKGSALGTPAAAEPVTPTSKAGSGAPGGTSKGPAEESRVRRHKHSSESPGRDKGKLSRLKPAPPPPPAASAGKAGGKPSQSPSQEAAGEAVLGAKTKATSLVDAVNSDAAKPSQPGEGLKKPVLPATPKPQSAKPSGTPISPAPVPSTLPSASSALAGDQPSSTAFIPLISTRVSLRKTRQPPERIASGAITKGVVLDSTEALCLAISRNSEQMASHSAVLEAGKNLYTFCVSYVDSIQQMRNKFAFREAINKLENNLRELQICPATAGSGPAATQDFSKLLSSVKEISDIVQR

## O=C1NC(=O)[C@@H](c2cn3c4c(cccc24)CCC3)[C@@H]1c1c[nH]c2ccccc12 (single isomer, unassigned) [the selective c-Met inhibitor, (−)-trans-3-(5,6-dihydro-4H-pyrrolo[3,2,1-ij]quinolin-1-yl)-4(1H-indol-3-yl)pyrrolidine-2,5-dione]
c-Abl
  inhibition of the activity of c-Abl: does not inhibit the activity of c-Abl effectively
c-Met
  inhibition of the activity of c-Met: inhibits the activity of c-Met effectively
